Values joined by “and” are separate entries in the source; they are usually repeats but may differ in a detail not shown here. Identical values can stand only once. Inconclusive results are not listed. Active and inactive are the calls of the source. The rule behind the calls is not given here.
What follows are molecules tested on Toxoplasma gondii growth in host cells, no IFN-gamma (assay: T. gondii intracellular growth, IFN-gamma absent, dose response, cell-based (AID 1259420);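 note: host cells were HeLa; final incubation lasted 72 hours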).

| Compound | AC50 |
| --- | --- |
| COc1cc2c(cc1O)CC[C@@H]1[C@@H]2CC[C@]2(C)[C@@H](O)CC[C@@H]12 | 11.2 µM and 5.79 µM |
| Cc1ccccc1-c1ccc(C2[C@H]3CNC[C@@H]2N3Cc2ccc3c(c2)OCO3)cc1 (stereo partly drawn) | > 20 µM (inactive) |
| O=C(c1ccc(F)cc1)N1CC(=O)N2[C@H](CO)[C@H](c3ccc(C#CCC4CCCC4)cc3)[C@@H]2C1 | 14.7 µM |
| CC(=O)N(C)C1(c2ccccc2)CCN(CCC[C@]2(c3ccc(Cl)c(Cl)c3)CCCN(C(=O)c3ccccc3)C2)CC1 | 16.7 µM |
| CN1c2ccc(-c3ccccc3)cc2[C@H]2[C@H](CCN2C(=O)CC2CC2)[C@@H]1CO | 25.4 µM |
| CC1CCCCN1CCNc1nc(-c2ccc(Cl)cc2)nc2ccccc12 (stereo not drawn) | 11.8 µM |
| CC(C)C#Cc1ccc([C@@H]2[C@H]3CN(C(=O)NC4CCCC4)CC(=O)N3[C@H]2CO)cc1 | > 39 µM (inactive) |
| COc1ccc(-c2ccc(C3[C@@H]4CN(C(=O)c5ccc(F)cc5)C[C@H]3N4)cc2)cc1 (stereo partly drawn) | 24.4 µM and 13.3 µM |
| COc1ccccc1NC(=O)N1CCCCN2[C@H](CO)[C@@H](c3ccc(-c4cccc(C#N)c4)cc3)[C@@H]2C1 | 16.4 µM |
| COc1cccc(NC(=O)N2CC(=O)N3[C@H](C2)[C@H](c2ccc(C#CCC4CCCC4)cc2)[C@@H]3CO)c1 | 16.9 µM |
| CC(C)(C)CC(C)(C)c1ccc(OCCOCC[N+](C)(C)Cc2ccccc2)cc1 | 14.1 µM |
| N#Cc1cccc(C(=O)N2CCC3C2CC(=O)N3Cc2ccncc2)c1 (stereo not drawn) | > 20 µM (inactive) |
| CC(C)NC(=O)N1CC(=O)N2[C@@H](CO)[C@H](c3ccc(/C=C/c4ccccc4)cc3)[C@@H]2C1 | > 39 µM (inactive) |
| CCCCc1ccc(Nc2ncnc3c2cnn3-c2ccc(C)cc2C)cc1 | 11.6 µM |
| CN(C)C(=O)c1ccc(-c2ccc3c(c2)[C@H]2[C@H](CCN2C(=O)C2CCCC2)[C@@H](CO)N3C)cc1 | 14.6 µM |
| CS(=O)(=O)N1CC(=O)N2[C@@H](CO)[C@H](c3ccc(C#Cc4ccc(F)cc4)cc3)[C@@H]2C1 | 28 µM |
| O=c1c(O)c(-c2ccc(O)c(O)c2)oc2cc(O)cc(O)c12 | 15.8 µM |
| CS(=O)(=O)NCc1cnc2n1CCN(Cc1cccs1)CC2 | 25.6 µM |
| COc1cccc(-c2nc3c(s2)CN(S(=O)(=O)c2cc(C)ccc2C)CC3)c1 | 7.12 µM |
| CCN1C[C@@H](COC)[C@]2(CCN(C(=O)COc3ccccc3C)C2)C1 | > 39 µM (inactive) |
| O=C(C1CCC1)N1CC[C@H]2CN(Cc3cccc(Cl)c3)S(=O)(=O)[C@@H]2CC1 | > 39 µM (inactive) |
| CN1CCN(C(=O)c2nn(C)c3c2CCN(S(C)(=O)=O)C3)CC1 | > 39 µM (inactive) |
| COCC(=O)N1[C@@H](C#N)[C@H](c2ccc(C#CCC3CCCC3)cc2)[C@@H]1CO | 18.7 µM |
| COc1ccc(NC(=O)N2CCCCN3[C@H](C2)[C@@H](c2ccc(-c4ccccc4F)cc2)[C@@H]3CO)cc1 | 35.8 µM |
| Nc1ncnc2c1ncn2[C@@H]1O[C@H](C[C@@H](N)CC[C@H](N)C(=O)O)[C@@H](O)[C@H]1O | 1.38 µM |
| C[C@H](NC(=O)C[C@H]1CC[C@@H]2[C@@H](COc3ccc(NS(=O)(=O)c4ccc(Cl)cc4)cc3C(=O)N2C)O1)c1ccccc1 | 13.7 µM and 36.1 µM |
| O=C(C[C@H]1C[C@@H]2CN(Cc3ccccc3)C[C@H]2O1)N1CCCCO1 | > 39 µM (inactive) |

| Compound | AC50 |
| --- | --- |
| O=C(Nc1ccccc1F)N1C[C@@H]2N[C@H](C1)C2c1ccc(/C=C/c2ccccc2)cc1 (stereo partly drawn) | 18.6 µM |
| Cc1cccc(-c2ccc([C@@H]3[C@H](CO)N4CCCCN(S(=O)(=O)c5ccccc5F)C[C@@H]34)cc2)c1 | 19.7 µM |
| CC(C)(C)OC(=O)Nc1cc(-c2cn[nH]c2C2CCCN(C(=O)OC(C)(C)C)C2)ccn1 (stereo not drawn) | > 20 µM (inactive) |
| CCc1ccccc1S(=O)(=O)N1CCc2nc(-c3ccc(OC)cc3)sc2C1 | 4.35 µM |
| O=C1CNC[C@H]2[C@@H](c3ccc(Br)cc3)[C@H](CO)N12 | 35.9 µM |
| Fc1cccc(CN2C[C@@H]3N[C@H](C2)C3c2ccc(/C=C/c3ccccc3)cc2)c1 (stereo partly drawn) | 17.6 µM |
| CC(C)CC#Cc1ccc([C@@H]2[C@@H](CO)N3CCCCN(C(=O)Nc4ccccc4)C[C@H]23)cc1 | 15.9 µM |
| N#Cc1ccc(-c2ccc(C3[C@@H]4CN(C(=O)C5CCCCC5)C[C@H]3N4)cc2)cc1 (stereo partly drawn) | 16.7 µM |
| CC(C)CNC(=O)c1nc2c(s1)CCN(C(=O)NCc1ccccc1)CC2 | 18.3 µM |
| CCc1cnc(N2[C@H](C#N)[C@H](c3ccc(-c4cccc(F)c4)cc3)[C@H]2CO)s1 | 22.6 µM |
| O=C(c1ccc(F)cc1)N1CC(=O)N2[C@H](C1)[C@@H](c1ccc(C#CCC3CCCC3)cc1)[C@@H]2CO | 14.3 µM |
| COc1cccc(NC(=O)N2CC(=O)N3[C@H](CO)[C@H](c4ccc(C#CCC5CCCC5)cc4)[C@H]3C2)c1 | 13.9 µM and 16.2 µM |
| COc1cccc(-c2ccc([C@@H]3[C@H]4CN(C(=O)c5cccnc5)CC(=O)N4[C@H]3CO)cc2)c1 | > 39 µM (inactive) |
| CC(C)(C)c1ccc(S(=O)(=O)N2CCC[C@@H]2C(=O)NCCc2csc(-c3ccccc3)n2)cc1 | > 39 µM (inactive) |
| COc1cccc(S(=O)(=O)N2CCCCN3[C@H](C2)[C@H](c2ccc(C#CCC(C)C)cc2)[C@@H]3CO)c1 | 11.9 µM and 15.5 µM |
| C[C@@H]1CN(Cc2ccc(F)cc2)CCN1C(=O)COc1ccc(Cl)cc1NC(N)=O | > 39 µM (inactive) |
| O=C(C[C@@H]1CC[C@H]2[C@@H](COC[C@@H](O)CN2Cc2cc(F)ccc2F)O1)NCc1ccc(Oc2ccccc2)cc1 | 16.9 µM |
| COc1cccc(S(=O)(=O)N2CCCCN3[C@@H](CO)[C@H](c4ccc(C#CCC(C)C)cc4)[C@@H]3C2)c1 | 21.4 µM and 16.4 µM and 30.4 µM |
| Clc1cncc(OC[C@H]2CO[C@@H]3CN(Cc4cccs4)C[C@@H]23)c1 | > 39 µM (inactive) |
| Cc1ccccc1-c1ccc2c(-c3ncc(C(=O)NCCN(C)C)s3)noc2c1 | 24.7 µM |
| COc1ccccc1-c1ccc2c(c1)[C@@H]1[C@@H](CCN1S(=O)(=O)c1ccc(C)cc1)[C@H](CO)N2 | 12.4 µM |
| CCc1cnc(N2[C@H](C#N)[C@@H](c3ccc(-c4cccc(F)c4)cc3)[C@@H]2CO)s1 | > 39 µM (inactive) |
| N#Cc1cccc(-c2ccc(C3[C@@H]4CN(Cc5ccccc5)C[C@H]3N4)cc2)c1 (stereo partly drawn) | 13.1 µM |
| COc1cccc(-c2ccc3c(c2)[C@H]2[C@H](CCN2S(=O)(=O)c2ccccc2F)[C@@H](CO)N3)c1 | 11.5 µM and 6.32 µM |
| COc1cc([C@@H]2c3cc4c(cc3C(OC3O[C@@H]5COC(C)O[C@H]5[C@H](O)[C@H]3O)C3COC(=O)[C@@H]32)OCO4)cc(OC)c1O (stereo partly drawn) | 23.5 µM |
| N#Cc1cccc(-c2ccc3c(c2)[C@@H]2[C@@H](CCN2S(=O)(=O)c2ccc(F)cc2)[C@H](CO)N3)c1 | 10.1 µM |

From PubChem BioAssay AID1259420 (Broad Institute, 2018)
